These results are taken from paper PMC6222487 (Molecules : A Journal of Synthetic Chemistry and Natural …, 2018).

The target of one data set is T1, AChE (from electric eel) (Electrophorus electricus, UniProt O42275).
T1 construct: purchased Merck & Co
The experiment in a line: biochemical. The format is biochemical. Particulars: for IC50: mean ± SEM, NA = No potent inhibitory activity. On the procedure:
(§1) Photometric 96-well microplates made from polystyrene (Thermo Scientific, Waltham, […]. USA) were used for measurement purposes.
(§2) AChE and BuChE inhibitory activities were measured by the spectrophotometric method of Ellman, with slight modification. Briefly, all in vitro assays were performed in 0.1 M NaH2PO4/Na2HPO4 buffer, pH 7.4, using a THERMO Enzyme-labeled Instrument. The enzyme solutions were prepared to obtain 2.0 units/mL in 2.0 mL aliquots. The assay medium (1 mL) consisted of phosphate buffer (pH 7.4), 10 μL of the enzyme, 30 μL of 0.01 M DTNB, and 30 μL of substrate (ATC or BTC) at a concentration of 0.01 M. The test and reference compounds were first dissolved in DMSO (5‰) and fetal bovine serum (1‰), and then diluted in 0.1 M NaH2PO4/Na2HPO4 buffer (pH 7.4) to provide a final concentration range. The inhibitors were added to the assay solution containing enzyme, buffer, and DTNB with pre-incubation for 20 min at 37 °C, prior to the addition of the substrate. The activity was determined by measuring the increase in absorbance at 410 nm at 1 min intervals at 37 °C. The data were calculated according to the method described by Ellman et al. Each concentration was assayed in triplicate. Blanks containing all of the components except AChE were included in the analyses.

In data set [1] the target is T2, BuChE (from equine serum) (Equus caballus, UniProt P81908).
T2 construct: purchased Merck & Co; host or cells: equine serum
Nature of the data set: biochemical. Particulars: mean ± SEM. How it is done: as §1, §2

Data set [2] has as its target T3, Aβ (1-42) (Homo sapiens, UniProt P05067).
T3 construct: Aβ (1-42) peptide (Sigma-Aldrich); purchased Sigma-Aldrich
Nature of the data set: biochemical. Particulars: self-induced aggregation, thioflavin-T; Aβ 20 μM, 37 °C, 24 h; NA = No potent inhibitory activity. On the procedure: A Thioflavin T-based fluorometric assay was performed in order to investigate the self-induced Aβ (1-42) aggregation. Briefly, compounds to be tested were firstly dissolved in DMSO to obtain a 10 mM solution and then diluted in phosphate buffer (pH 7.4) to provide a final concentration range. […] After incubation, thioflavin-T (5 μM in 50 mM glycine-NaOH buffer, pH 8.0) was added into the above 96-well microplate and the samples were diluted to a final volume of 150 μL. […] Each inhibitor was run in triplicate.

Data set [3] deals with T3, Aβ (1-42). The experiment in a line: Aβ (1-42) fibril formation monitored by transmission electron microscopy (TEM). The format is biochemical. Particulars: Aβ (1-42) 20 µM, compound 50 µM, 37 °C, 24 h. On the procedure: Aβ (1-42) peptide (Sigma-Aldrich) was added into a 96-well microplate and then diluted by phosphate buffer (10 mM, pH 7.4) to provide a concentration of 100 μM solution at 4 °C before use and the sample preparation procedure was the same as that used for the Thioflavin T assay. Aliquots (5 μL) of the samples were placed on a carbon-coated copper/rhodium grid for 2 min at room temperature. Each grid was stained with phosphomolybdic acid solution (3%, 5 μL) for 2 min. After draining off the excess staining solution, the specimen was transferred for imaging by transmission electron microscopy.

The next data set addresses T4, AChE (Electrophorus electricus, UniProt O42275).
T4 construct: purchased Merck & Co
The experiment in a line: Kinetic study of AChE inhibition (Lineweaver-Burk plot). Type of data set: biochemical. Particulars: substrate 0.1–0.4 mM. How it is done:
The assay solution (100 μL) was afforded by the addition of 30 μL of DTNB (0.01 M), 10 μL of 2 units/mL AChE, and 30 μL of substrate (ATC) to the phosphate buffer (0.1 M, pH 7.0). Three different concentrations of 8q were added to the assay solution with the AChE and pre-incubated for 20 min at 37 °C, followed by the addition of substrate in different concentrations. Kinetic characterization of the hydrolysis of ATC catalysed by AChE was carried out at 410 nm. A parallel control was made with the assay solution of no inhibitor for each time. The plots were assessed by a weighted least square analysis that assumed the variance of V to be a constant percentage of V for the entire data set.
Figure 2 Determination of the inhibitory type of selected compound 8q on AChE. Merged Lineweaver-Burk reciprocal plots of AChE initial velocity with increasing substrate concentrations (0.1–0.4 mM) in the absence or presence of 8q. Lines were derived from a weighted least-squares analysis of data points.

The test system of the next data set is HepG2 cells. The format is cell-based. Particulars: for Cell viability: 24 h, CCK-8; for Cytotoxicity (in words): HepG2 cells, up to 500 μM. On the procedure:
One of the best documented side-effects of the drug discovery and development of AD is cytotoxicity. To probe whether such a type of target compounds involves cytotoxic effects, we respectively treated HepG2 cells and SH-SY5Y cells with several concentrations of the corresponding compound. Cell viability was determined by a CCK-8 assay. […].
HepG2 cells (human hepatocellular liver carcinoma cell line from American Type Culture Collection, ATCC) were cultured in Eagle’s minimum essential medium (EMEM) supplemented with 10% heat-inactivated fetal bovine serum (FBS), and 100 U/mL of penicillin/streptomycin (Gino Biomedical Technology Co. LTD., Hangzhou, China). Cultures were seeded into flasks containing supplemented medium and maintained at 37 °C in a humidified atmosphere of 5% CO2. For assays, cells (1.0 × 10^5 cells/well) were seeded in a 96-well plate in complete medium, the medium was removed after 24 h, and cells were exposed to the increasing concentrations of compounds 8q or 8r (0, 25, 50, 125, 200, 300, 400, and 500 μM) in DMEM with no serum for a further 24 h. Cell survival was measured through a CCK-8 assay. All compounds were dissolved in pure DMSO.

Another data set relates to SH-SY5Y cells. The format is cell-based. Particulars: for Cytotoxicity (in words): SH-SY5Y cells, up to 500 μM; for Cell viability: SH-SY5Y, 24 h, CCK-8. How it is done:
To probe whether such a type of target compounds involves cytotoxic effects, we respectively treated HepG2 cells and SH-SY5Y cells with several concentrations of the corresponding compound. Cell viability was determined by a CCK-8 assay.
SH-SY5Y cells (human neuroblastoma cell line from American Type Culture Collection, ATCC, Manassas, VA, USA) were seeded into 96-well plates at a density of 4 × 10^4 cells/mL in Dulbecco’s modified Eagle’s medium (DMEM) supplemented with 10% FBS and 100 U/mL of penicillin/streptomycin (Gino Biomedical Technology Co. LTD., Hangzhou, China), and incubated in a humidified atmosphere containing 5% CO2 at 37 °C. […] After this incubation, 10 μL/well of CCK-8 (5 mg/mL) was added and incubated at 37 °C for 4 h. The optical density (OD) of each well was measured using an Epoch Microplate Spectrophotometer (BioTek Instruments, Inc., Winooski, VT, USA) with a test wavelength of 450, 630 nm.

Read-outs that look alike come from different tables or passages of the source.

T3 sequence (P05067 672-713): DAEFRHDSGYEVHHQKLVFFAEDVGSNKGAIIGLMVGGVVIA
T1 sequence (O42275 24-633): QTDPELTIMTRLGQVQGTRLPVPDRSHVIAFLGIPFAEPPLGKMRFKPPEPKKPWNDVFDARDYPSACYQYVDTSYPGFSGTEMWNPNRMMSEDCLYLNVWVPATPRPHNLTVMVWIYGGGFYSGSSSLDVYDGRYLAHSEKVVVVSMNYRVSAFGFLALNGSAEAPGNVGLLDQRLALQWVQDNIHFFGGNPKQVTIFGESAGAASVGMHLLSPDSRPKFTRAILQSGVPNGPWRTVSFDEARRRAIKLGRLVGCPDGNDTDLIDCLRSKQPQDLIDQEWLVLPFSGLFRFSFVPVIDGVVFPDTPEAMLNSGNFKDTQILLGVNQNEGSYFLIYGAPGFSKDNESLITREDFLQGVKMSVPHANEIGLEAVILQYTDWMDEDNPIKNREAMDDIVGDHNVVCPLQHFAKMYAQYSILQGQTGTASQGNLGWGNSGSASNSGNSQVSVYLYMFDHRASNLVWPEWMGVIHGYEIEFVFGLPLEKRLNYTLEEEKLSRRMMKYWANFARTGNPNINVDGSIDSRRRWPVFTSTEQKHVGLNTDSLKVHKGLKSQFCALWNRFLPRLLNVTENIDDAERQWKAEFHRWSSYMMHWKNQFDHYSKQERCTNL
T2 sequence (P81908 whole entry): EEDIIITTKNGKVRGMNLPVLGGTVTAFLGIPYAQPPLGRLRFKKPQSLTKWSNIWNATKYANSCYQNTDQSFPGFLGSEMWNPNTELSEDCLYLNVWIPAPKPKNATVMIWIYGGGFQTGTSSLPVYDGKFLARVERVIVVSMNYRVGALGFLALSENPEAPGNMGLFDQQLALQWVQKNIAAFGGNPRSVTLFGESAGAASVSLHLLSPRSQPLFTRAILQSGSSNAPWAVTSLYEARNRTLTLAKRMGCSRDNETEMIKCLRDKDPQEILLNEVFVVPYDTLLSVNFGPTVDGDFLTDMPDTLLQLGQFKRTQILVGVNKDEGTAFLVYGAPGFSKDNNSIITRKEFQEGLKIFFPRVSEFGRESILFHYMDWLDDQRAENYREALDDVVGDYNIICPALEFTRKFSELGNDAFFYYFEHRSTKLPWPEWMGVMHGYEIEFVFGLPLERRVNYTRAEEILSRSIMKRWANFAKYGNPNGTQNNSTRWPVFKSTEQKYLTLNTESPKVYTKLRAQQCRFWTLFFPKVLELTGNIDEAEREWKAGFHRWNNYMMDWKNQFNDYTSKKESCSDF
T4 sequence (O42275 24-633): as the sequence (O42275 24-633) above

In the case of `Cc1nc(C)c(/C=C/C(=O)OCCCOC(=O)c2nc(C)c(C)nc2C)nc1C` [Compound 8q, 3-{[(2E)-3-(3,5,6-Trimethylpyrazin-2-yl)prop-2-enoyl]oxy}propyl 3,5,6-trimethylpyrazine-2-carboxylate], the IC50 on AChE (from electric eel) stood at 0.00139 ± 0.00033 µM; in data set [1], 4040 ± 910 µM; against Aβ (1-42) [2], 17.36 ± 0.027 µM. In addition, on Aβ (1-42) [3], the “Aβ amorphous deposits seen by TEM” value is “could obviously alleviate the formation of Aβ amorphous deposits compared with tacrine”. On Aβ (1-42) [3], the “Aβ fibril formation seen by TEM” value was “no obvious Aβ fibril was detected”. For the same compound, the “Inhibitory type on AChE” value on AChE is reported as “mixed-type inhibitor”. For the same compound, the Cell viability in the data set with HepG2 cells (HepG2, 25 µM) was 96.81 ± 3.05 ^ns percentage of control; in the data set on HepG2 cells (HepG2, 50 µM) it was 91.09 ± 0.99 ^ns percentage of control; with HepG2 cells (HepG2, 125 µM) it was 81.19 ± 1.48 percentage of control; with HepG2 cells (HepG2, 200 µM) it was 64.81 ± 0.54 percentage of control; in the data set on HepG2 cells (HepG2, 300 µM) it was 66.75 ± 1.11 percentage of control; in the data set on HepG2 cells (HepG2, 400 µM), 68.89 ± 0.51 percentage of control. Further, the Cell viability is 70.10 ± 1.98 percentage of control in the data set with HepG2 cells (HepG2, 500 µM); 104.30 ± 0.29 ^ns percentage of control in the data set with SH-SY5Y cells (25 µM); 96.08 ± 0.78 ^ns percentage of control in the data set with SH-SY5Y cells (50 µM); 80.25 ± 1.53 percentage of control with SH-SY5Y cells (125 µM); 72.17 ±0.54 percentage of control in the data set on SH-SY5Y cells (200 µM); 58.92 ± 0.70 percentage of control in the data set with SH-SY5Y cells (300 µM). In addition, the Cell viability in the data set with SH-SY5Y cells (400 µM) is recorded as 55.14 ± 0.50 percentage of control; in the data set with SH-SY5Y cells (500 µM) it was 55.28 ± 0.55 percentage of control. In addition, the “Cytotoxicity (in words)” value in the data set with HepG2 cells and with SH-SY5Y cells was “no obvious cytotoxicity” in each case.

On to `Cc1nc(C)c(C(=O)OCCCOC(=O)c2ccccn2)nc1C` [Compound 8r, 3-[(Pyridine-2-carbonyl)oxy]propyl 3,5,6-trimethylpyrazine-2-carboxylate], for which the IC50 at AChE (from electric eel) turned out to be 0.00025 ± 0.00039 µM; in data set [1], 3300 ± 60 µM; at Aβ (1-42) [2], 49.14 ± 0.025 µM. Further, the “AChE inhibition potency relative to tacrine” value at AChE (from electric eel) (stronger than tacrine) is on record as 293 times. In addition, the Cell viability in the data set on HepG2 cells (HepG2, 25 µM) is 102.83 ± 0.57 ^ns percentage of control; in the data set on HepG2 cells (HepG2, 50 µM), 88.05 ± 1.12 ^ns percentage of control; in the data set with HepG2 cells (HepG2, 125 µM), 81.72 ± 0.87 percentage of control; in the data set with HepG2 cells (HepG2, 200 µM), 71.10 ± 1.06 percentage of control; with HepG2 cells (HepG2, 300 µM), 71.10 ± 0.80 percentage of control; in the data set on HepG2 cells (HepG2, 400 µM), 68.85 ± 1.11 percentage of control. The Cell viability with HepG2 cells (HepG2, 500 µM) was 68.31 ± 0.53 percentage of control; in the data set on SH-SY5Y cells (25 µM), 94.51 ± 0.45 ^ns percentage of control; in the data set on SH-SY5Y cells (50 µM), 91.46 ± 0.29 ^ns percentage of control; with SH-SY5Y cells (125 µM) it was 83.23 ± 0.78 percentage of control; with SH-SY5Y cells (200 µM) it was 83.26 ± 2.74 percentage of control; in the data set on SH-SY5Y cells (300 µM) it was 68.43 ± 0.48 percentage of control. Besides, the Cell viability with SH-SY5Y cells (400 µM) is 62.68 ± 0.56 percentage of control; in the data set with SH-SY5Y cells (500 µM), 66.38 ± 1.57 percentage of control. The “Cytotoxicity (in words)” value in the data set with HepG2 cells and with SH-SY5Y cells was “no obvious cytotoxicity” each time.

What is called IC50 is the concentration needed to halve the response being measured. High values mean weaker potency in that assay, low ones greater potency in that assay.
